{"source": "paper PMC10564737", "about": "“Structure-based design of a phosphotyrosine-masked covalent ligand targeting the E3 ligase SOCS2” (Nature Communications, 2023)", "key": {"[1]": {"molecular_target": "T1, HiBiT-SOCS2 fusion in HeLa cells (Homo sapiens, UniProt O14508)", "T1 construct": "encoding SOCS2 (32–198) in pBiT3.1-N expression vector; expressed in transfected cells; host or cells: HeLa", "T1 sequence (O14508 32-198)": "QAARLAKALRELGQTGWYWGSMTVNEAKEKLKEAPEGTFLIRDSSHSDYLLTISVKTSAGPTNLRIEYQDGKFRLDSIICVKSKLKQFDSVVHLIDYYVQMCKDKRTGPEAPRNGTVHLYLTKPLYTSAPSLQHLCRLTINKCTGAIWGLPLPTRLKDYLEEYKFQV", "T1 sequence (Q15370 whole entry, further chain, the tested form may be a part)": "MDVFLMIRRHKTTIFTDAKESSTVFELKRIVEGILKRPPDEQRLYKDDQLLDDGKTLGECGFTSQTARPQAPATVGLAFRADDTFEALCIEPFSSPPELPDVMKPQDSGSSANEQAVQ", "T1 sequence (Q15369 whole entry, further chain, the tested form may be a part)": "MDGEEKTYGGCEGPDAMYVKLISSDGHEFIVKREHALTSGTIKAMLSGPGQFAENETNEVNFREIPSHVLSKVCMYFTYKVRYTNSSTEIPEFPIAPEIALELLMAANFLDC", "assay": "Split-NanoLuc CETSA, live-cell mode", "format": "cell-based", "parameters": "Produrg CETSA screening, raw signal: reference not given here", "settings": "for Produrg CETSA screening, raw signal: 50uM 20hrs; for ΔT / ΔT, individual replicates n1-n3: Prodrug screen CETSA; for ΔT: live HeLa cells, 50 μM, 20 h, Mean n = 3; for ΔT, individual replicates n1-n3: single replicates", "method": "One of the challenges with small-molecule binders displaying on-target activity with recombinant proteins, is to translate their utility to a cellular context. […] One of the advantages of CETSA is that target engagement can be monitored without the need for the development of a cell-permeable tracer molecule.\nWe utilized CETSA in a live-cell mode to evaluate the efficacy and rank the different prodrugs. We treated live HeLa cells with 50 μM compound (prodrugs) for 20 h and monitored Tagg shift as a proxy for the combo of prodrug permeability and unmasking (Fig. 4d). […] The observation could be because the POM group unmasking requires only esterase unlike the reliance of compounds 21–23 on esterase and phosphoramidase for unmasking an aryloxy phosphoramidate group.\nN-terminal HiBiT-SOCS2 fusion was generated by encoding SOCS2 (32–198) in pBiT3.1-N expression vector (Promega). The transfection and target engagement assay were performed by modifying a NanoLuc target engagement protocol (Promega) with some small modifications. Briefly, HiBiT-SOCS2 fusion construct was transfected into HeLa cells using FuGENE HD (Promega) according to the manufacturer’s protocol. HiBiT-SOCS2 fusion construct was diluted into Transfection Carrier DNA (Promega) at a mass ratio of 1:100 or 1:10 for permeabilised and live-cell CETSA respectively. FuGENE HD was added at a ratio of 1:3 (μg DNA: μL FuGENE HD). 1 part (vol) of FuGENE HD complexes thus formed were combined with 20 parts (vol) of HeLa cells suspended at a density of 2 × 10^5 cells/mL, followed by incubation in a humidified, 37 °C + 5% CO2 incubator. After 20 h of incubation HeLa cells were detached and resuspended at a density of 2.5 × 10^5 cells/mL in Opti-MEM media without serum or phenol red but supplemented with protease inhibitor cocktail (Roche). Compounds stocks were added to cell suspension to maintain a final DMSO concentration of 1%. For the permeabilised assay format, 96-well PCR plates (Thermo) were pre-treated with digitonin to have a final well concentration of 50 μg/ml. 50 μl Opti-MEM cell suspension was then aliquoted to each well of the 96-well plate. The plates are then covered with microporous tape sheet (Qiagen) prior to incubation in a humidified, 37 °C + 5% CO2 incubator. Post-incubation we heat the PCR plates in 16-point temperature (split across two runs) curve spanning degrees 40-72 °C temperature span (CFX96 Touch Real-Time PCR Detection System, BioRad). The thermal cycler block was allowed to rise to the designated temperatures prior to placement of the PCR plates into the heating block and heat treatment for 3 min. After incubating the plates at room temperature for over 3 min, 50 μl of the Nano-Glo HiBiT Lytic mix (Promega) was added to each well. Samples were mixed by pipetting and placing the plate on an orbital shaker (600 rpm) for 5 min. 20 μl of the samples (in triplicates) were transferred to a AlphaPlate-384 plate (Perkin Elmer). Luminescence was recorded with GloMax Discover Microplate Reader (Promega). To generate apparent Tagg curves, the data is first converted to percent stabilized by relating the observed luminescence to the luminescence of the lowest temperature (40 °C) for that given sample. Data are then fitted to obtain apparent Tagg values using the Boltzmann Sigmoid equation using Graphpad Prism 9."}, "[2]": {"molecular_target": "T2, SBC2 (Homo sapiens, UniProt O14508)", "T2 construct": "SOCS2 (amino acids 32–198); His6 (N, cleaved yes); made in house; host or cells: E. coli BL21(DE3)", "T2 sequence (O14508 32-198)": "as the sequence (O14508 32-198) above", "T2 sequence (Q15370 1-104 partner limits assumed)": "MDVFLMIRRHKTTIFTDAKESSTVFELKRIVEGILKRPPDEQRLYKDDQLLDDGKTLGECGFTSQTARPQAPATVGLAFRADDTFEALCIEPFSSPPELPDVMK", "T2 sequence (Q15369 17-112 partner limits assumed)": "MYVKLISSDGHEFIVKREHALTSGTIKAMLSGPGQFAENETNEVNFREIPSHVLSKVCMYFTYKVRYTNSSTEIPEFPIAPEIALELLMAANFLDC", "assay": "Covalent fluorescence polarization (FP) probe displacement assay", "format": "binding", "settings": "SBC2 titration with 10 nM probe; read-out: KD of fluorescent probe measured with FP", "source_text": "With the specific covalent modification of Cys111 established, we decided to fully characterize MN551 as a covalent SOCS2 inhibitor. […] (Fig. 2g, h, Supplementary Fig. 9). Due to the covalent nature of the competing inhibitor, a time-dependent reduction in the fraction of protein-bound probe is observed. […] This value illustrates reasonable specificity for a covalent inhibitor, with nonetheless scope for future optimization. In addition to characterizing the kinetic covalency parameters, we have also assessed the stability of the MN551 by monitoring its reactivity (half-life >70 min) with reduced glutathione (GSH) (Supplementary Fig. 10)[35].\nTo monitor the SBC2-ligand binding kinetics we designed a fluorescein-labeled small-molecule probe - compound 26. The fluorescence polarization (anisotropy) of a threefold serial dilution of 50 µM SBC2 in 10 nM of the probe in 100 mM HEPES pH 7.5, 50 mM NaCl, 0.5 mM TCEP, 2% DMSO was measured to determine the KL (Supplementary Fig. 9A) (BMG Labtech PHERAstar – firmware v1.33). Protein titration and the curves were fitted using GraphPad Prism 9, using one-site fitting models to determine the probe binding constant, KL. Samples were run in triplicate in 384 well plates, using a total volume per well of 16 μL. The bound fraction of the probe is measure using the equation:1 Fb=Af−A/Af−Ab Where,\nA time-dependent reduction in probe anisotropy were measured for a 2-fold serial dilution of […] compound MN551 in 10 nM probe +300 μM SBC2. To determine the initial reversible binding affinity, the initial bound fraction of the probe at time = 0, Fbo (the y-intercept in Fb v/s Time plot, Supplementary Fig. 9B) was plotted against MN551 concentration, and the obtained IC50 is then converted to Ki (Supplementary Fig. 9C)[17]. The slope from Fb versus time graph when divided by Fbo gives rate of covalency, kobs. A plot of kobs v/s MN551 concentration using Michaelis–Menten model of GraphPad Prism 9, provides the parameters kinact (maximum potential rate of inactivation) and KI (concentration of MN551 at which kobs = kinact/2) (Supplementary Fig. 9D, E).\nThe observed first-order rate constant, kobs is related to KI and kinact by the equation:2 kobs=kinactI/KI+I\nAt [I]«[KI] the above equation is converted to3 […]\nThe slope from the plot of kobs against concentration of MN551 gives us the covalent efficiency parameter kinact/KI (Supp Fig. 9F)[30],[33]."}}, "note": "Several values for one entry are separate records, joined by “and”; a condition that tells them apart may be missing. Equal values may be shown once.", "data": [{"smiles": "COC(=O)[C@H](C)NP(=O)(Oc1ccc(C[C@H](NC(=O)Cc2ccc(F)cc2)C(=O)NCc2cccc(NC(=O)CCl)c2)cc1)Oc1cccc2ccccc12", "note": "(stereo partly drawn) [Compound 21]", "values": [{"measurement": "Produrg CETSA screening, raw signal", "setting": "[1]; n=1, temperature point 4 of 16, temperature not given", "value": "91803 and 91466 and 172287"}, {"measurement": "Produrg CETSA screening, raw signal", "setting": "[1]; n=1, temperature point 5 of 16, temperature not given", "value": "75745 and 107243 and 102225"}, {"measurement": "Produrg CETSA screening, raw signal", "setting": "[1]; n=1, temperature point 6 of 16, temperature not given", "value": "90752 and 132144 and 123125"}, {"measurement": "Produrg CETSA screening, raw signal", "setting": "[1]; n=1, temperature point 7 of 16, temperature not given", "value": "129001 and 137550 and 230259"}, {"measurement": "Produrg CETSA screening, raw signal", "setting": "[1]; n=1, temperature point 8 of 16, temperature not given", "value": "138976 and 169925 and 177765"}, {"measurement": "Produrg CETSA screening, raw signal", "setting": "[1]; n=1, temperature point 9 of 16, temperature not given", "value": "198178 and 192764 and 223087"}, {"measurement": "Produrg CETSA screening, raw signal", "setting": "[1]; n=1, temperature point 10 of 16, temperature not given", "value": "187698 and 251675 and 298741"}, {"measurement": "Produrg CETSA screening, raw signal", "setting": "[1]; n=1, temperature point 11 of 16, temperature not given", "value": "267213 and 290800 and 310548"}, {"measurement": "Produrg CETSA screening, raw signal", "setting": "[1]; n=1, temperature point 12 of 16, temperature not given", "value": "360938 and 373247 and 422856"}, {"measurement": "Produrg CETSA screening, raw signal", "setting": "[1]; n=1, temperature point 13 of 16, temperature not given", "value": "434129 and 461596 and 480477"}, {"measurement": "Produrg CETSA screening, raw signal", "setting": "[1]; n=1, temperature point 14 of 16, temperature not given", "value": "437890 and 471533 and 565224"}, {"measurement": "Produrg CETSA screening, raw signal", "setting": "[1]; n=1, temperature point 15 of 16, temperature not given", "value": "465739 and 467737 and 561619"}, {"measurement": "Produrg CETSA screening, raw signal", "setting": "[1]; n=1, temperature point 16 of 16, temperature not given", "value": "441792 and 461249 and 531619"}, {"measurement": "Produrg CETSA screening, raw signal", "setting": "[1]; n=2, temperature point 1 of 16, temperature not given", "value": "100426 and 115227 and 145975"}, {"measurement": "Produrg CETSA screening, raw signal", "setting": "[1]; n=2, temperature point 2 of 16, temperature not given", "value": "100401 and 85507 and 140649"}, {"measurement": "Produrg CETSA screening, raw signal", "setting": "[1]; n=2, temperature point 3 of 16, temperature not given", "value": "123706 and 103110 and 202648"}, {"measurement": "Produrg CETSA screening, raw signal", "setting": "[1]; n=2, temperature point 4 of 16, temperature not given", "value": "103160 and 69960 and 120366"}, {"measurement": "Produrg CETSA screening, raw signal", "setting": "[1]; n=2, temperature point 5 of 16, temperature not given", "value": "75996 and 86411 and 132074"}, {"measurement": "Produrg CETSA screening, raw signal", "setting": "[1]; n=2, temperature point 6 of 16, temperature not given", "value": "123683 and 120963 and 144901"}, {"measurement": "Produrg CETSA screening, raw signal", "setting": "[1]; n=2, temperature point 7 of 16, temperature not given", "value": "143611 and 177701 and 227556"}, {"measurement": "Produrg CETSA screening, raw signal", "setting": "[1]; n=2, temperature point 8 of 16, temperature not given", "value": "172997 and 193471 and 214613"}, {"measurement": "Produrg CETSA screening, raw signal", "setting": "[1]; n=2, temperature point 9 of 16, temperature not given", "value": "198669 and 236779 and 246686"}, {"measurement": "Produrg CETSA screening, raw signal", "setting": "[1]; n=2, temperature point 10 of 16, temperature not given", "value": "209139 and 261273 and 295556"}, {"measurement": "Produrg CETSA screening, raw signal", "setting": "[1]; n=2, temperature point 11 of 16, temperature not given", "value": "246514 and 287579 and 323688"}, {"measurement": "Produrg CETSA screening, raw signal", "setting": "[1]; n=2, temperature point 12 of 16, temperature not given", "value": "393463 and 428191 and 449673"}, {"measurement": "Produrg CETSA screening, raw signal", "setting": "[1]; n=2, temperature point 13 of 16, temperature not given", "value": "441856 and 476194 and 509704"}, {"measurement": "Produrg CETSA screening, raw signal", "setting": "[1]; n=2, temperature point 14 of 16, temperature not given", "value": "497788 and 532165 and 547547"}, {"measurement": "Produrg CETSA screening, raw signal", "setting": "[1]; n=2, temperature point 15 of 16, temperature not given", "value": "523691 and 513819 and 551344"}, {"measurement": "Produrg CETSA screening, raw signal", "setting": "[1]; n=2, temperature point 16 of 16, temperature not given", "value": "478273 and 472552 and 530261"}, {"measurement": "Produrg CETSA screening, raw signal", "setting": "[1]; n=3, Temp, 0C 62.3", "value": 20167}, {"measurement": "Produrg CETSA screening, raw signal", "setting": "[1]; n=3, Temp, 0C 66.1", "value": "12666 and 19260 and 24872"}, {"measurement": "Produrg CETSA screening, raw signal", "setting": "[1]; n=3, Temp, 0C 69.3", "value": "18005 and 19840 and 24313"}, {"measurement": "Produrg CETSA screening, raw signal", "setting": "[1]; n=3, Temp, 0C 71.1", "value": "19926 and 19187 and 22421"}, {"measurement": "Produrg CETSA screening, raw signal", "setting": "[1]; n=3, Temp, 0C 72", "value": "14765 and 18884 and 20941"}, {"measurement": "ΔT", "setting": "[1]", "value": 0.60, "unit": "oC"}, {"measurement": "ΔT, individual replicates n1-n3", "setting": "[1]", "value": "1.03 oC and -0.02 oC and 0.80 oC"}]}, {"smiles": "Cc1cc(CNC(=O)[C@H](Cc2ccc(OP(=O)(O)O)cc2)NC(=O)Cc2ccc(F)cc2OCCNC(=S)Nc2ccc3c(c2)C(=O)OC32c3ccc(O)cc3Oc3cc(O)ccc32)ccc1Cl", "note": "[Compound 26]", "values": [{"measurement": "Kd", "setting": "[2]", "value": 77.6, "unit": "nM"}]}, {"smiles": "CC(C)OC(=O)[C@H](C)NP(=O)(Oc1ccc(C[C@H](NC(=O)Cc2ccc(F)cc2)C(=O)NCc2cccc(NC(=O)CCl)c2)cc1)Oc1cccc2ccccc12", "note": "(stereo partly drawn) [Compound 22]", "values": [{"measurement": "ΔT", "setting": "[1]", "value": 2.37, "unit": "oC"}, {"measurement": "ΔT, individual replicates n1-n3", "setting": "[1]", "value": "2.11 oC and 3.40 oC and 1.59 oC"}]}]}
